Assay results reported in PMC9090415, “Discovery of small molecule inhibitors of Plasmodium falciparum apicoplast DNA polymerase” (Journal of Enzyme Inhibition and Medicinal Chemistry, 2022).

Target: T1, bacteriophage T4 DNA polymerase (Enterobacteria phage T4, UniProt P04415)
T1 construct: made in house
T1 sequence (P04415 1-898): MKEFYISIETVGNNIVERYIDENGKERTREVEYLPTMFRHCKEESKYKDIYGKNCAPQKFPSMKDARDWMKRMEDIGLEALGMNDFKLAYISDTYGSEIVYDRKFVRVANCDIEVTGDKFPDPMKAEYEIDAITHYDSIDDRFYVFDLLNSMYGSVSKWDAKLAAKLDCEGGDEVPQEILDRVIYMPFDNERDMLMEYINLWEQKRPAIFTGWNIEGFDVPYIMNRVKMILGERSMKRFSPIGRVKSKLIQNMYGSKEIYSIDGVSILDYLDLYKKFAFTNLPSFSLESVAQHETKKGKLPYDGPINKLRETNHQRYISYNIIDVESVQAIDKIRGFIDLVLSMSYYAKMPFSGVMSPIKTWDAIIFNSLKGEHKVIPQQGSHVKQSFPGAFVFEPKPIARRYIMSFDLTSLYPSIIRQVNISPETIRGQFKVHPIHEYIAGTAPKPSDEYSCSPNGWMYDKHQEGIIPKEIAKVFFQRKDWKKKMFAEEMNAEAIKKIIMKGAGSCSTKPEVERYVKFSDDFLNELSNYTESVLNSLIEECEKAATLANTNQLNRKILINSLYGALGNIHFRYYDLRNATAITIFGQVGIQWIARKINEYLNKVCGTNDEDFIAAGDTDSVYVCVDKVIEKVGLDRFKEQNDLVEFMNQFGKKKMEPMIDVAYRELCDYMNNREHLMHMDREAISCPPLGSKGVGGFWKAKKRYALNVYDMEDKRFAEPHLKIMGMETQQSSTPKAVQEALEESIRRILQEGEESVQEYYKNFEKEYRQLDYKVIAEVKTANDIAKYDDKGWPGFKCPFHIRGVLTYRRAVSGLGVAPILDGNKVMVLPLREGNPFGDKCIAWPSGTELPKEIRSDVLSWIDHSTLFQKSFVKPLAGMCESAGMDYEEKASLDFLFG
Experiment: Counter-screen against bacteriophage T4 DNA polymerase
Format: biochemical
Conditions: for % inhibition T4 10' 2.5 / % inhibition T4 10' 5 / % inhibition T4 10' 10 / % inhibition T4 10' 20 / % inhibition T4 10' 40 / % inhibition T4 10' 80: read at 10'
Summary of the method: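 IC50 values come from dose-response testing of each compound against T4 DNA polymerase. This B-family polymerase was purified in-house and used as the counter-screen.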

For `O=C(Cn1ccc2c(=O)[nH]ccc21)Nc1cc(F)ccc1F` [Molecule 42, O=C(Cn1ccc2c1cc[nH]c2=O)Nc1cc(F)ccc1F], the “% inhibition T4 10'” value (DRC-2, concentration 2.5) was -1.82%, the “% inhibition T4 10'” value (DRC-2, concentration 5) was -13% and the “% inhibition T4 10'” value (DRC-2, concentration 20) was -4%. For the same compound, the “% inhibition T4 10'” value (DRC-2, concentration 80) was -13%, the “% inhibition T4 40'” value (DRC-2, concentration 20) was -4% and the “% inhibition T4 40'” value (DRC-2, concentration 80) was -13%. For the same compound, the “% inhibition T4 180'” value (DRC-2, concentration 2.5) was -1.82% and the “% inhibition T4 180'” value (DRC-2, concentration 80) was -13%.

`COc1cccc(C(=O)N2CCc3c(nc4cc(-c5ccccc5)[nH]n4c3=O)C2)c1OC` [Molecule 22, COc1c(OC)cccc1C(=O)N1CCc2c(C1)nc1n(c2=O)[nH]c(c1)c1ccccc1] was tested, and the “% inhibition T4 10'” value (DRC-2, concentration 40) was -28%, the “% inhibition T4 10'” value (DRC-2, concentration 80) was -28% and the “% inhibition T4 40'” value (DRC-2, concentration 2.5) was -13%. For the same compound, the “% inhibition T4 40'” value (DRC-2, concentration 40) was -28%, the “% inhibition T4 40'” value (DRC-2, concentration 80) was -27% and the “% inhibition T4 90'” value (DRC-2, concentration 2.5) was -11%. The “% inhibition T4 90'” value (DRC-2, concentration 10) was -29%, the “% inhibition T4 90'” value (DRC-2, concentration 40) was -28% and the “% inhibition T4 180'” value (DRC-2, concentration 2.5) was -11%. For the same compound, the “% inhibition T4 180'” value (DRC-2, concentration 10) was -27%, the “% inhibition T4 180'” value (DRC-2, concentration 20) was -29% and the “% inhibition T4 180'” value (DRC-2, concentration 40) was -29%.

For `O=[N+]([O-])c1ccc(/C=C/c2ccc3ccccc3n2)o1` [Molecule 21, O=N(=O)c1ccc(o1)/C=C/c1ccc2c(n1)cccc2], the “% inhibition T4 10'” value (DRC-2, concentration 2.5) was 23%, the “% inhibition T4 10'” value (DRC-2, concentration 5) was 25% and the “% inhibition T4 40'” value (DRC-2, concentration 2.5) was 25%. For the same compound, the “% inhibition T4 40'” value (DRC-2, concentration 20) was 37%, the “% inhibition T4 40'” value (DRC-2, concentration 80) was 32% and the “% inhibition T4 90'” value (DRC-2, concentration 2.5) was 23%. The “% inhibition T4 90'” value (DRC-2, concentration 10) was 32%, the “% inhibition T4 90'” value (DRC-2, concentration 80) was 37% and the “% inhibition T4 180'” value (DRC-2, concentration 10) was 25%. The “% inhibition T4 180'” value (DRC-2, concentration 40) was 37%.

`Cc1ccc(N2CCC(NC(=O)Cc3cccs3)C2=O)cc1C` (stereo not drawn) [Molecule 57, O=C(NC1CCN(C1=O)c1ccc(c(c1)C)C)Cc1cccs1] was tested, and the “% inhibition T4 10' 2.5” value (DRC-1, concentration 2.5) was -2.9635%, the “% inhibition T4 10' 5” value (DRC-1, concentration 5) was 6.066% and the “% inhibition T4 10' 10” value (DRC-1, concentration 10) was 19.8361%. The “% inhibition T4 10' 20” value (DRC-1, concentration 20) was 23.1597%, the “% inhibition T4 10' 40” value (DRC-1, concentration 40) was 29.7521% and the “% inhibition T4 10' 80” value (DRC-1, concentration 80) was 29.7097%. For the same compound, the “% inhibition T4 70' 2.5” value (DRC-1, read at 70', concentration 2.5) was -3.783%, the “% inhibition T4 70' 5” value (DRC-1, read at 70', concentration 5) was 0.9049% and the “% inhibition T4 70' 10” value (DRC-1, read at 70', concentration 10) was 15.0423%. For the same compound, the “% inhibition T4 70' 20” value (DRC-1, read at 70', concentration 20) was 17.1422%, the “% inhibition T4 70' 40” value (DRC-1, read at 70', concentration 40) was 24.1448% and the “% inhibition T4 70' 80” value (DRC-1, read at 70', concentration 80) was 21.6253%. For the same compound, the “% inhibition T4 130' 2.5” value (DRC-1, read at 130', concentration 2.5) was -5.326%, the “% inhibition T4 130' 5” value (DRC-1, read at 130', concentration 5) was -0.359% and the “% inhibition T4 130' 10” value (DRC-1, read at 130', concentration 10) was 12.5508%. For the same compound, the “% inhibition T4 130' 20” value (DRC-1, read at 130', concentration 20) was 13.7416%, the “% inhibition T4 130' 40” value (DRC-1, read at 130', concentration 40) was 21.2189% and the “% inhibition T4 130' 80” value (DRC-1, read at 130', concentration 80) was 19.4508%. For the same compound, the “% inhibition T4 10' 2.5” value (DRC-2, concentration 2.5) was 14%, the “% inhibition T4 10' 5” value (DRC-2, concentration 5) was 12% and the “% inhibition T4 10' 10” value (DRC-2, concentration 10) was 20%. The “% inhibition T4 10' 20” value (DRC-2, concentration 20) was 23%, the “% inhibition T4 10' 40” value (DRC-2, concentration 40) was 25% and the “% inhibition T4 10' 80” value (DRC-2, concentration 80) was 26%. The “% inhibition T4 40' 2.5” value (DRC-2, read at 40', concentration 2.5) was 13%, the “% inhibition T4 40' 5” value (DRC-2, read at 40', concentration 5) was 12% and the “% inhibition T4 40' 10” value (DRC-2, read at 40', concentration 10) was 20%. The “% inhibition T4 40' 20” value (DRC-2, read at 40', concentration 20) was 27%, the “% inhibition T4 40' 40” value (DRC-2, read at 40', concentration 40) was 30% and the “% inhibition T4 40' 80” value (DRC-2, read at 40', concentration 80) was 35%. For the same compound, the “% inhibition T4 90' 2.5” value (DRC-2, read at 90', concentration 2.5) was 13%, the “% inhibition T4 90' 5” value (DRC-2, read at 90', concentration 5) was 11% and the “% inhibition T4 90' 10” value (DRC-2, read at 90', concentration 10) was 20%. The “% inhibition T4 90' 20” value (DRC-2, read at 90', concentration 20) was 26%, the “% inhibition T4 90' 40” value (DRC-2, read at 90', concentration 40) was 29% and the “% inhibition T4 90' 80” value (DRC-2, read at 90', concentration 80) was 37%. For the same compound, the “% inhibition T4 180' 2.5” value (DRC-2, read at 180', concentration 2.5) was 11%, the “% inhibition T4 180' 5” value (DRC-2, read at 180', concentration 5) was 10% and the “% inhibition T4 180' 10” value (DRC-2, read at 180', concentration 10) was 18%. The “% inhibition T4 180' 20” value (DRC-2, read at 180', concentration 20) was 25%, the “% inhibition T4 180' 40” value (DRC-2, read at 180', concentration 40) was 28% and the “% inhibition T4 180' 80” value (DRC-2, read at 180', concentration 80) was 37%.
